The source of these data is patent publication US11155517B2, “4-substituted phenylamine derivatives and their use to protect crops by fighting undesired phytopathogenic micoorganisms” (PI INDUSTRIES LTD., priority 2016, dated 2021).

The subject of test [1] is Alternaria solani. In words: Alternaria solani (early blight of tomato/potato) in vitro test, radial growth on Potato Dextrose Agar. Type of test: cell-based. The following applies: 168 h, 300 ppm, seven days, 25° C., read-out: % control compared to the untreated check (radial growth).
Test [2] relates to Fusarium culmorum. In words: Greenhouse Fusarium culmorum test in wheat, preventive. Type of test: in vivo. Conditions: 24 h, read-out: Efficacy (% control), disease severity vs untreated check. The method in brief: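 Young greenhouse wheat sprayed preventively at stated rates (compounds in 2% DMSO/acetone, diluted in water), inoculated one day later with 2×10^6 Fusarium culmorum spores in 2% malt, held at 24 °C, 80-90% RH. Disease severity (0-100%) rated 3, 7, 10 and 15 days after application; % control versus untreated, phytotoxicity also recorded.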

For test [3], the system named is Pyricularia oryzae. In words: microbe, parasite or virus in culture. Type of test: cell-based. Conditions: 168 h, read-out: % control compared to the untreated check (radial growth).
Test [4] relates to Botrytis cinerea. In words: Botrytis cinerea (gray mold) in vitro test, radial growth on Potato Dextrose Agar. Type of test: cell-based. The following applies: 168 h, 300 ppm, seven days, 22° C., read-out: % (control) compared to the untreated check (radial growth).
Test [5] relates to Pyricularia oryzae. In words: whole plant or invertebrate. Conditions: 24 h, read-out: Efficacy (% control), disease severity vs untreated check. Type of test: in vivo.
In test [6] the test system is Colletotrichum capsici. In words: Colletotrichum capsici (anthracnose) in vitro test, radial growth on Potato Dextrose Agar. In kind it is cell-based. Conditions: Colletotrichum truncatum, 168 h; 300 ppm; seven days, 25° C.; read-out: % control compared to the untreated check (radial growth).
Test [7] has as its system Botrytis cinera. In words: Greenhouse Botrytis cinera test in tomato, preventive. Type of test: in vivo. The following applies: 24 h, plants sprayed one day before inoculation, read-out: Efficacy (% control), disease severity vs untreated check.
In test [8] the test system is Rhizoctonia solani. In words: Rhizoctonia solani (rice sheath blight/potato black scurf) in vitro test, radial growth on Potato Dextrose Agar. In kind it is cell-based. Conditions: 168 h, 300 ppm, seven days, 25° C., read-out: % control compared to the untreated check (radial growth).
Test [9] has as its system Fusarium culmorum. In words: Fusarium culmorum (foot rot of cereals) in vitro test, radial growth on Potato Dextrose Agar. Type of test: cell-based. The following applies: Fusarium culmorum, 168 h, read-out: % control compared to the untreated check (radial growth).
Test [10] concerns Septoria lycopersici. In words: Septoria lycopersici (leaf spot of tomato) in vitro test, radial growth on Potato Dextrose Agar. The following applies: 168 h, seven days, 25° C., read-out: % control compared to the untreated check (radial growth). Type of test: cell-based.
Test [11] has as its system Alternaria solani. In words: Greenhouse Alternaria solani test in tomato, preventive. In kind it is in vivo. Conditions: 24 h, tomato plants sprayed one day before inoculation, read-out: Efficacy (% control), disease severity vs untreated check. The method in brief: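 Preventive test: greenhouse tomato plants sprayed with compounds (2% DMSO/acetone in water) at stated rates, inoculated one day later with Alternaria solani spores (0.24×10^6 in 2% malt), held at 22-24 °C, 90-95% RH. % control versus untreated plants; phytotoxicity also scored.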

`CCN(C)C=Nc1cc(Cl)c(Cc2ccccc2F)cc1Cl` [Compound 149, N′-(2,5-dichloro-4-(2-fluorobenzyl)phenyl)-N-ethyl-N-methylformimidamide]: the inhibition of growth at 300 ppm was above 75% in test [1], above 75% in test [3] and above 80% in [4]. For the same compound, the pest or weed control at 500 ppm in test [2] and in [5] was 70 to 100% in each case.

`CCN(C)C=Nc1cc(C)c(Cc2ccccc2C(F)(F)F)cc1Cl` [Compound 103, N′-(2-chloro-5-methyl-4-(2-(trifluoromethyl)benzyl)phenyl)-N-ethyl-N-methylformimidamide]: the inhibition of growth at 300 ppm in test [1] is above 75%; in [6], above 80%; in [3] it was above 75%; in [4], above 80%; in test [8] it was above 80%. For the same compound, the pest or weed control at 500 ppm in [5] and in [7] was 70 to 100% in each case.

With `CCN(C)C=Nc1cc(C)c(Cc2ccc(F)cc2Cl)cc1C` [Compound 110, N′-(4-(2-chloro-4-fluorobenzyl)-2,5-dimethylphenyl)-N-ethyl-N-methylformimidamide], the inhibition of growth at 300 ppm in [1] was above 75%; in [9] it was 75%; in test [10] it was above 70%; in test [6], above 80%; in [3], above 75%; in [4], above 80%. The inhibition of growth at 300 ppm in [8] is above 80%. For the same compound, the pest or weed control at 500 ppm in test [5] lay in the range of 70 to 100%.

Consider `CCN(C)C=Nc1cc(C)c(Cc2cccc(OC(F)(F)F)c2)cc1C` [Compound 51, N′-(2,5-dimethyl-4-(3-(trifluoromethoxy)benzyl)phenyl)-N-ethyl-N-methylformimidamide], for which the inhibition of growth at 300 ppm in test [1] is above 75%; in test [9], 75%; in test [10] it was above 70%; in test [6], above 80%; in [3] it was above 75%; in test [4] it was above 80%. Besides, in test [8], the inhibition of growth at 300 ppm was above 80%. Moreover, the pest or weed control at 500 ppm in test [5] was 70 to 100%.

`Cc1cc(N=CN2CCOCC2)c(C)cc1Cc1ccccc1Cl` [Compound 63, N-(4-(2-chlorobenzyl)-2,5-dimethylphenyl)-1-morpholinomethanimine]: the inhibition of growth at 300 ppm is above 75% in test [1]; 75% in test [9]; above 70% in [10]; above 80% in test [6]; above 75% in test [3]; above 80% in test [4]. In addition, the inhibition of growth at 300 ppm in test [8] is above 80%. For the same compound, the pest or weed control at 500 ppm in [5] was 70 to 100%.

Take `CCN(C)C=Nc1cc(C)c(Cc2ccc(C)cc2)cc1Cl` [Compound 44, N′-(2-chloro-5-methyl-4-(4-methylbenzyl)phenyl)-N-ethyl-N-methylformimidamide]: the inhibition of growth at 300 ppm is above 75% in [1]; 75% in test [9]; above 70% in test [10]; above 80% in [6]; above 75% in test [3]; above 80% in test [4]. Further, the inhibition of growth at 300 ppm in test [8] was above 80%. For the same compound, in test [5], the pest or weed control at 500 ppm fell in the range of 70 to 100%.

On to `CCN(C)C=Nc1cc(C)c(Cc2cc(C(F)(F)F)cc(C(F)(F)F)c2)cc1Cl` [Compound 96, N′-(4-(3,5-bis(trifluoromethyl)benzyl)-2-chloro-5-methylphenyl)-N-ethyl-N-methylformimidamide], for which the inhibition of growth at 300 ppm in [1] was above 75%. The pest or weed control at 500 ppm in [2] and in test [5] was 70 to 100% throughout.

Turning to `CCN(C)C=Nc1cc(C)c(Cc2cccc(Cl)c2Cl)cc1C` [Compound 133, N′-(4-(2,3-dichlorobenzyl)-2,5-dimethylphenyl)-N-ethyl-N-methylformimidamide], the inhibition of growth at 300 ppm in test [1] was above 75%; in test [10], above 70%; in [6] it was above 80%; in test [3], above 75%; in test [4] it was above 80%; in [8], above 80%. The pest or weed control at 500 ppm in test [5] and in test [7] was 70 to 100% throughout.

Turning to `CCN(C)C=Nc1cc(C)c(Cc2ccc(Cl)c(C)c2)cc1Cl` [Compound 120, N′-(2-chloro-4-(4-chloro-3-methylbenzyl)-5-methylphenyl)-N-ethyl-N-methylformimidamide], the inhibition of growth at 300 ppm in [1] is above 75%; in test [9], 75%; in test [6] it was above 80%; in test [3], above 75%; in [4], above 80%; in [8] it was above 80%. For the same compound, in test [5], the pest or weed control at 500 ppm lay in the range of 70 to 100%.

For the compound `CCN(C)C=Nc1cc(C)c(Cc2cc(C)ccc2C)cc1C` [Compound 26, N′-(4-(2,5-dimethylbenzyl)-2,5-dimethylphenyl)-N-ethyl-N-methylformimidamide], the inhibition of growth at 300 ppm in test [1] was above 75%; in test [9] it was 75%; in [10] it was above 70%; in test [6], above 80%; in test [3], above 75%; in [4], above 80%. Also, the inhibition of growth at 300 ppm in test [8] is above 80%. Besides, the pest or weed control at 500 ppm in test [5] was 70 to 100%.

Regarding `CCN(C)C=Nc1cc(C)c(Cc2ccccc2C(F)(F)F)cc1C` [Compound 93, N′-(2,5-dimethyl-4-(2-(trifluoromethyl)benzyl)phenyl)-N-ethyl-N-methylformimidamide], the inhibition of growth at 300 ppm in test [1] was above 75%; in test [9] it was 75%; in [10] it was above 70%; in test [6], above 80%; in test [3] it was above 75%; in [4], above 80%. Further, the inhibition of growth at 300 ppm in [8] was above 80%. Further, the pest or weed control at 500 ppm in [5] lay in the range of 70 to 100%.

Regarding `CCN(C)C=Nc1cc(C)c(Cc2ccc(C#N)cc2)cc1C` [Compound 48, N′-(4-(4-cyanobenzyl)-2,5-dimethylphenyl)-N-ethyl-N-methylformimidamide], the inhibition of growth at 300 ppm in test [1] is above 75%; in [9] it was 75%; in [10] it was above 70%; in test [6] it was above 80%; in [3] it was above 75%; in test [4], above 80%. For the same compound, in test [8], the inhibition of growth at 300 ppm was above 80%. The pest or weed control at 500 ppm in test [11] and in [5] was 70 to 100% throughout.

Consider `CCN(C)C=Nc1cc(C)c(Cc2ccc(C(F)(F)F)cc2)cc1C` [Compound 94, N′-(2,5-dimethyl-4-(4-(trifluoromethyl)benzyl)phenyl)-N-ethyl-N-methylformimidamide], for which the inhibition of growth at 300 ppm was above 75% in test [1]; 75% in test [9]; above 70% in test [10]; above 80% in [6]; above 75% in test [3]; above 80% in test [4]. For the same compound, in [8], the inhibition of growth at 300 ppm was above 80%. The pest or weed control at 500 ppm in test [5] and in [7] was 70 to 100% in each case.

`CCN(C)C=Nc1cc(C)c(Cc2cccc(C)c2C)cc1C` [Compound 112, N′-(4-(2,3-dimethylbenzyl)-2,5-dimethylphenyl)-N-ethyl-N-methylformimidamide]: the inhibition of growth at 300 ppm is above 75% in test [1]; 75% in [9]; above 70% in test [10]; above 80% in test [6]; above 75% in test [3]; above 80% in test [8]. For the same compound, in test [5], the pest or weed control at 500 ppm lay in the range of 70 to 100%.

On to `CCN(C)C=Nc1cc(Cl)c(Cc2cccc(C(F)(F)F)c2)cc1Cl` [Compound 183, N′-(2,5-dichloro-4-(3-(trifluoromethyl)benzyl)phenyl)-N-ethyl-N-methylformimidamide], for which the pest or weed control at 500 ppm in [2] and in test [5] was 70 to 100% throughout. For the same compound, the inhibition of growth at 300 ppm in [3] is above 75%; in [4], above 80%; in test [8] it was above 80%.
